In publication PMC5540879 (Molecular cancer research : MCR, 2017):

Target: T1, OATP1B3 (Homo sapiens, UniProt Q9NPD5)
T1 sequence (Q9NPD5 1-702): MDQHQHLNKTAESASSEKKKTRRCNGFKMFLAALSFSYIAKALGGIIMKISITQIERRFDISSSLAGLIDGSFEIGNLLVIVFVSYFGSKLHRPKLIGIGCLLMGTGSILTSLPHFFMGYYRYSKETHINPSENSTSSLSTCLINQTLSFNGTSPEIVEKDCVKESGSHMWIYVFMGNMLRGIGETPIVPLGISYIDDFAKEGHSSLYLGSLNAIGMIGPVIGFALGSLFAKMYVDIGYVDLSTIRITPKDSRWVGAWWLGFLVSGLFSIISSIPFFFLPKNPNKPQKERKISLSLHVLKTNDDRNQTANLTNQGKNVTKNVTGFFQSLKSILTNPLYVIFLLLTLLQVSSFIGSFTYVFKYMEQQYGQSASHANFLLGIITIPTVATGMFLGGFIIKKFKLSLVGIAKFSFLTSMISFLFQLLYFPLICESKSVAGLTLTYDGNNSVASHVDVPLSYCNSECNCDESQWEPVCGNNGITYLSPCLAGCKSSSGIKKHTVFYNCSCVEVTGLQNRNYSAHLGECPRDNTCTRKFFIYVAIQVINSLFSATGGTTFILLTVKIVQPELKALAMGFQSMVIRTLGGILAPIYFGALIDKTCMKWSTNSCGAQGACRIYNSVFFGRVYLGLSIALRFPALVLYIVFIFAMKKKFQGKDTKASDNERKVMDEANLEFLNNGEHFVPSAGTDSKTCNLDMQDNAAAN
Experiment: radiolabeled uptake kinetics
Assay type: cell-based
Conditions: oatp1b3-cho cells

Compound | Km [µM]
C[C@]12CCC(=O)C[C@@H]1CC[C@@H]1[C@@H]2CC[C@]2(C)[C@@H](O)CC[C@@H]12 [DHT] | 30.4 ± 9.3
C[C@]12CCC(=O)C=C1CC[C@@H]1[C@@H]2CC[C@]2(C)C(=O)CC[C@@H]12 [androstenedione, 4-androstene-3,17-dione] | 31.7 ± 9.5
C[C@]12CC[C@H]3[C@@H](CCC4=CC(=O)CC[C@@]43C)[C@@H]1CC[C@@H]2O [testosterone] | 23.2 ± 3.9
